Tests used:
[1] = target: HCA3 (UniProt P49019); experiment: Emax (maximal agonist-induced change in ebBRET relative to vehicle) (% of vehicle response (amplitude of change)); higher = larger response (for Gs, larger decrease in membrane ebBRET, i.e. stronger Gs activation)
[2] = target: HCA3 (UniProt P49019); experiment: pEC50 of agonist-induced pathway activation (ebBRET)
[3] = system: AMY3; experiment: Emax (maximal agonist-induced change in ebBRET relative to vehicle) (% of vehicle response (amplitude of change)); higher = larger response (for Gs, larger decrease in membrane ebBRET, i.e. stronger Gs activation)
[4] = target: AMY3; experiment: pEC50 of agonist-induced pathway activation (ebBRET)
[5] = target: mGluR8 (UniProt O00222); experiment: as above
[6] = target: T1, B1 (UniProt P46663); experiment: Emax (maximal agonist-induced change in ebBRET relative to vehicle) (% of vehicle response (amplitude of change)); higher = larger response (for Gs, larger decrease in membrane ebBRET, i.e. stronger Gs activation)
T1 sequence (whole entry): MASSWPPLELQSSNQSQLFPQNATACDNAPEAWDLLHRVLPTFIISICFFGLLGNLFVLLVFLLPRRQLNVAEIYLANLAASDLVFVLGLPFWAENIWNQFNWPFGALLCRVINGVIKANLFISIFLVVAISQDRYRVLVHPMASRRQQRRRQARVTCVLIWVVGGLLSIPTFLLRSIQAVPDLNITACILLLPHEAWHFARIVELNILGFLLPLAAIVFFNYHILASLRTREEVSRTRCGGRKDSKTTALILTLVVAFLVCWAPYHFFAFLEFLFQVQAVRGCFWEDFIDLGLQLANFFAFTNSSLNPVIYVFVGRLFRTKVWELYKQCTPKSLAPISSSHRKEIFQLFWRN

[7] = target: T2, B2 (UniProt P30411); experiment: as above
T2 sequence (whole entry): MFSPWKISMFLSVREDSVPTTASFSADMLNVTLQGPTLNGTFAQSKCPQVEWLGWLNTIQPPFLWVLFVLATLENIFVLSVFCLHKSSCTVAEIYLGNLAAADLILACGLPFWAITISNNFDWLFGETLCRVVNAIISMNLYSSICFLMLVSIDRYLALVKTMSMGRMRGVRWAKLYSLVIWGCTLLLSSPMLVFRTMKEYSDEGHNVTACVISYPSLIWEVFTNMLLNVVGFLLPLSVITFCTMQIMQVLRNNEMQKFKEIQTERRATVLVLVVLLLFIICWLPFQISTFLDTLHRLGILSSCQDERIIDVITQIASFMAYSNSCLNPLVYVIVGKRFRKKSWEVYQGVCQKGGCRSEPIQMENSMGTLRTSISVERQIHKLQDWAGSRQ

[8] = target: T1, B1; experiment: pEC50 of agonist-induced pathway activation (ebBRET)
[9] = target: T2, B2; experiment: as above

HCA3, sequence (P49019 whole entry): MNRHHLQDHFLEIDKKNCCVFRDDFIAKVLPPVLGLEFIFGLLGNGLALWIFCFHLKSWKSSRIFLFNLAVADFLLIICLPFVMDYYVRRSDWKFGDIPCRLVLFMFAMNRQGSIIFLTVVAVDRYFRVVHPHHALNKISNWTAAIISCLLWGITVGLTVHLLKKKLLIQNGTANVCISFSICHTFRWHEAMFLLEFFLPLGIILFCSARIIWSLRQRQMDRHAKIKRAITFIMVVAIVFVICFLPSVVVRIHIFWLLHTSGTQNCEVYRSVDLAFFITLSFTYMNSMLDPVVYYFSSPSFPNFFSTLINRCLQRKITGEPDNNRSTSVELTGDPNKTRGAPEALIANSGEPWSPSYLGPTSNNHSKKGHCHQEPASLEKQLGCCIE
mGluR8, sequence (O00222 whole entry): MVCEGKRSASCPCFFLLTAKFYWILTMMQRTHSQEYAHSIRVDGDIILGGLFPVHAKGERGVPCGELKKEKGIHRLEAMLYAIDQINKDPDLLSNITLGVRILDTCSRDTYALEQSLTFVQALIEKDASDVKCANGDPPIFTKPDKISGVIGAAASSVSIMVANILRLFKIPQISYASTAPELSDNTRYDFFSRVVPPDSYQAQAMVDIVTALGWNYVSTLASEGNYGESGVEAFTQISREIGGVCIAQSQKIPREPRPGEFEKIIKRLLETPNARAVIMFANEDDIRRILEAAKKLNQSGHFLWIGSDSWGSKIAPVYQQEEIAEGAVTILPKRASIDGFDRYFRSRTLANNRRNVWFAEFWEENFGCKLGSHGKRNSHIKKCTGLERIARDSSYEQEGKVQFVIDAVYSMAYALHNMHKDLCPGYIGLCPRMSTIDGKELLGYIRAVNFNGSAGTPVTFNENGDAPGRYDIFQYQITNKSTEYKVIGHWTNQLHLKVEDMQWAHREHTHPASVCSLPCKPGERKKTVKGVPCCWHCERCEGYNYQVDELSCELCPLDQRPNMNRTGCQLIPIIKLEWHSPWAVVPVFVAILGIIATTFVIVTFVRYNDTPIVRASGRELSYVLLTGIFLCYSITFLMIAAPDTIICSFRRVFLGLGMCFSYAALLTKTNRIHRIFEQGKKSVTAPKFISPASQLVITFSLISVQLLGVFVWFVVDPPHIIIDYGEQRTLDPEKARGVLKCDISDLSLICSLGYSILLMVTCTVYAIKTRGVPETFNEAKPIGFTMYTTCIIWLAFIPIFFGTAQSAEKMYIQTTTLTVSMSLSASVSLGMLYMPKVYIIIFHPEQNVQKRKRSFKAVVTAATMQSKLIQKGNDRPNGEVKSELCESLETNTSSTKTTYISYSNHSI

CCCCCC(O)CC(=O)O (configuration not stated) [3-HOA]
Details | Emax, [1] | pEC50, [2]
pathway (G protein / arrestin sensor): G13 | 97.9 | 4.08
pathway (G protein / arrestin sensor): Gi1 | 415 | 5.63
pathway (G protein / arrestin sensor): Gi2 | 190 | 5.71
pathway (G protein / arrestin sensor): GoA | 187 | 5.5
pathway (G protein / arrestin sensor): GoB | 317 | 5.45
pathway (G protein / arrestin sensor): Gz | 178 | 5.25
pathway (G protein / arrestin sensor): βarr1/GRK2 | 605 | 3.49
pathway (G protein / arrestin sensor): βarr2 | 115 | 3.52
pathway (G protein / arrestin sensor): βarr2/GRK2 | 487 | 3.47

CC[C@H](C)[C@H](NC(=O)[C@H](C)NC(=O)CNC(=O)[C@H](Cc1ccccc1)NC(=O)[C@H](CC(N)=O)NC(=O)[C@H](CC(N)=O)NC(=O)[C@H](CO)NC(=O)[C@H](CO)NC(=O)[C@H](Cc1cnc[nH]1)NC(=O)[C@@H](NC(=O)[C@H](CC(C)C)NC(=O)[C@H](Cc1ccccc1)NC(=O)[C@H](CC(N)=O)NC(=O)[C@H](C)NC(=O)[C@H](CC(C)C)NC(=O)[C@H](CCCNC(=N)N)NC(=O)[C@H](CCC(N)=O)NC(=O)[C@@H](NC(=O)[C@H](C)NC(=O)[C@@H]1CSSC[C@H](NC(=O)[C@@H](N)CCCCN)C(=O)N[C@@H](CC(N)=O)C(=O)N[C@@H]([C@@H](C)O)C(=O)N[C@@H](C)C(=O)N[C@@H]([C@@H](C)O)C(=O)N1)[C@@H](C)O)C(C)C)C(=O)N[C@@H](CC(C)C)C(=O)N[C@@H](CO)C(=O)N[C@@H](CO)C(=O)N[C@H](C(=O)N[C@@H](CC(N)=O)C(=O)N[C@H](C(=O)NCC(=O)N[C@@H](CO)C(=O)N[C@@H](CC(N)=O)C(=O)N[C@H](C(=O)N[C@@H](Cc1ccc(O)cc1)C(N)=O)[C@@H](C)O)C(C)C)[C@@H](C)O [Amylin]
Details | Emax, pathway (G protein / arrestin sensor): G12 | Emax, pathway (G protein / arrestin sensor): G13 | Emax, pathway (G protein / arrestin sensor): G15 | Emax, pathway (G protein / arrestin sensor): Gs | pEC50, pathway (G protein / arrestin sensor): G12 | pEC50, pathway (G protein / arrestin sensor): G13 | pEC50, pathway (G protein / arrestin sensor): G15 | pEC50, pathway (G protein / arrestin sensor): Gs
[3] | 62.3 | 271 | 122 | 21.4 | – | – | – | –
[4] | – | – | – | – | 8.6 | 8.49 | 7.22 | 7.79

NC(CCC(=O)O)C(=O)O (configuration not stated) [Glutamate]
[5]
Details | pEC50
pathway (G protein / arrestin sensor): Gi1 | 5.6
pathway (G protein / arrestin sensor): Gi2 | 5.52
pathway (G protein / arrestin sensor): GoA | 6.07
pathway (G protein / arrestin sensor): GoB | 5.99
pathway (G protein / arrestin sensor): Gz | 5.49

NCCCC[C@H](N)C(=O)N[C@@H](CCCN=C(N)N)C(=O)N1CCC[C@H]1C(=O)N1CCC[C@H]1C(=O)NCC(=O)N[C@@H](Cc1ccccc1)C(=O)N[C@@H](CO)C(=O)N1CCC[C@H]1C(=O)N[C@@H](Cc1ccccc1)C(=O)N[C@@H](CCCN=C(N)N)C(=O)O [Kallidin]
Details | Emax, [6] | Emax, [7] | pEC50, [8] | pEC50, [9]
pathway (G protein / arrestin sensor): G11 | 201 | 802 | 6.8 | 9.54
pathway (G protein / arrestin sensor): G12 | – | 83.2 | – | 10.2
pathway (G protein / arrestin sensor): G13 | – | 484 | – | 9.16
pathway (G protein / arrestin sensor): G14 | 162 | 871 | 6.88 | 9.54
pathway (G protein / arrestin sensor): G15 | 78.9 | 1050 | 7.54 | 8.75
pathway (G protein / arrestin sensor): Gi1 | 94.8 | 478 | 6.64 | 8.14
pathway (G protein / arrestin sensor): Gi2 | 65.7 | 257 | 6.75 | 7.87
pathway (G protein / arrestin sensor): GoA | 81.3 | 149 | 6.7 | 7.83
pathway (G protein / arrestin sensor): GoB | 161 | 360 | 6.78 | 8.14
pathway (G protein / arrestin sensor): Gq | 171 | 576 | 6.91 | 9.71
pathway (G protein / arrestin sensor): Gz | 32.3 | 204 | 6.93 | 8.65
pathway (G protein / arrestin sensor): βarr1/GRK2 | – | 1740 | – | 8.62
pathway (G protein / arrestin sensor): βarr2 | – | 889 | – | 8.54
pathway (G protein / arrestin sensor): βarr2/GRK2 | – | 1180 | – | 8.52

Reference: the supplement of paper PMC9005190
